melting point: 166 to 167 °C
Structure (SMILES): Cn1cc(C(=O)Nc2ccccc2-c2ccc(Br)cc2)c(C(F)F)c1 [Compound 1.2, 1-methyl-4-difluoromethyl-1H-pyrrole-3-carboxylic acid (4′-bromobiphenyl-2-yl) amide]

From US20040082477A1, “Pyrrolecarboxamides for the use as fungicdes” (priority 2001, published 2004)
